Measurements from PubChem BioAssay AID1259407 (Chemical Carcinogenesis Research Information System (CCRIS), 2018).
Active and inactive are the calls of the source. The rule behind the calls is not given here.

Test system: CCRIS mutagenicity, Ames/micronucleus/aberration tests
Assay: CCRIS mutagenicity studies
[1] = Test System: AMES SALMONELLA TYPHIMURIUM, Strain/Indicator: TA98, Metabolic Activation: HAMSTER, LIVER, S-9, AROCLOR 1254 (10%), Method: PREINCUBATION
[2] = Test System: AMES SALMONELLA TYPHIMURIUM, Strain/Indicator: TA98, Metabolic Activation: NONE, Method: PREINCUBATION
[3] = Test System: AMES SALMONELLA TYPHIMURIUM, Strain/Indicator: TA98, Metabolic Activation: RAT, LIVER, S-9, AROCLOR 1254 (10%), Method: PREINCUBATION
[4] = Test System: AMES SALMONELLA TYPHIMURIUM, Strain/Indicator: TA100, Metabolic Activation: HAMSTER, LIVER, S-9, AROCLOR 1254 (10%), Method: PREINCUBATION
[5] = Test System: AMES SALMONELLA TYPHIMURIUM, Strain/Indicator: TA100, Metabolic Activation: NONE, Method: PREINCUBATION
[6] = Test System: AMES SALMONELLA TYPHIMURIUM, Strain/Indicator: TA100, Metabolic Activation: RAT, LIVER, S-9, AROCLOR 1254 (10%), Method: PREINCUBATION
[7] = Test System: AMES SALMONELLA TYPHIMURIUM, Strain/Indicator: TA1535, Metabolic Activation: HAMSTER, LIVER, S-9, AROCLOR 1254 (10%), Method: PREINCUBATION
[8] = Test System: AMES SALMONELLA TYPHIMURIUM, Strain/Indicator: TA1535, Metabolic Activation: NONE, Method: PREINCUBATION
[9] = Test System: AMES SALMONELLA TYPHIMURIUM, Strain/Indicator: TA1535, Metabolic Activation: RAT, LIVER, S-9, AROCLOR 1254 (10%), Method: PREINCUBATION
[10] = Test System: AMES SALMONELLA TYPHIMURIUM, Strain/Indicator: TA1537, Metabolic Activation: HAMSTER, LIVER, S-9, AROCLOR 1254 (10%), Method: PREINCUBATION
[11] = Test System: AMES SALMONELLA TYPHIMURIUM, Strain/Indicator: TA1537, Metabolic Activation: NONE, Method: PREINCUBATION
[12] = Test System: AMES SALMONELLA TYPHIMURIUM, Strain/Indicator: TA1537, Metabolic Activation: RAT, LIVER, S-9, AROCLOR 1254 (10%), Method: PREINCUBATION
[13] = Test System: AMES SALMONELLA TYPHIMURIUM, Strain/Indicator: TA98, Metabolic Activation: NONE, Method: STANDARD PLATE
[14] = Test System: AMES SALMONELLA TYPHIMURIUM, Strain/Indicator: TA100, Metabolic Activation: NONE, Method: STANDARD PLATE

For `NCCCCCCN`, the mutagenic call [1] was “inactive; negative”, the mutagenic call [2] was “inactive; negative” and the mutagenic call [3] was “inactive; negative”. The mutagenic call [4] was “inactive; negative”, the mutagenic call [5] was “inactive; negative” and the mutagenic call [6] was “inactive; negative”. For the same compound, the mutagenic call [7] was “inactive; negative”, the mutagenic call [8] was “inactive; negative” and the mutagenic call [9] was “inactive; negative”. For the same compound, the mutagenic call [10] was “inactive; negative”, the mutagenic call [11] was “inactive; negative” and the mutagenic call [12] was “inactive; negative”.
For `O=C1c2ccccc2C(=O)c2cc(O)ccc21`, the mutagenic call [2] was “active; positive”, the mutagenic call [3] was “active; positive” and the mutagenic call [5] was “inactive; negative”. For the same compound, the mutagenic call [6] was “inactive; negative”.
For `ClCc1c2ccccc2cc2ccccc12`, the mutagenic call [2] was “active; positive”, the mutagenic call (Test System: AMES SALMONELLA TYPHIMURIUM, Strain/Indicator: TA98, Metabolic Activation: RAT, LIVER, S-9, PCB, Method: PREINCUBATION) was “active; positive” and the mutagenic call [5] was “active; positive”. The mutagenic call (Test System: AMES SALMONELLA TYPHIMURIUM, Strain/Indicator: TA100, Metabolic Activation: RAT, LIVER, S-9, PCB, Method: PREINCUBATION) was “active; positive”.
`Clc1cc2ccccc2c2ccccc12` was tested, and the mutagenic call [13] was “inactive; negative”, the mutagenic call (Test System: AMES SALMONELLA TYPHIMURIUM, Strain/Indicator: TA98, Metabolic Activation: RAT, LIVER, S-9, AROCLOR 1254, Method: STANDARD PLATE) was “active; positive” and the mutagenic call [14] was “inactive; negative”. For the same compound, the mutagenic call (Test System: AMES SALMONELLA TYPHIMURIUM, Strain/Indicator: TA100, Metabolic Activation: RAT, LIVER, S-9, AROCLOR 1254, Method: STANDARD PLATE) was “inactive; negative”.
`C=CCC` was tested, and the mutagenic call (Test System: AMES SALMONELLA TYPHIMURIUM, Strain/Indicator: TA98, Metabolic Activation: NONE, Method: GAS EXPOSURE) was “inactive; negative”, the mutagenic call (Test System: AMES SALMONELLA TYPHIMURIUM, Strain/Indicator: TA98, Metabolic Activation: RAT LIVER S-9, PHENOBARBITAL AND BETA-NAPHTHOFLAVONE (40%), Method: GAS EXPOSURE) was “inactive; negative” and the mutagenic call (Test System: AMES SALMONELLA TYPHIMURIUM, Strain/Indicator: TA100, Metabolic Activation: NONE, Method: GAS EXPOSURE) was “inactive; negative”. The mutagenic call (Test System: AMES SALMONELLA TYPHIMURIUM, Strain/Indicator: TA100, Metabolic Activation: RAT LIVER S-9, PHENOBARBITAL AND BETA-NAPHTHOFLAVONE (40%), Method: GAS EXPOSURE) was “inactive; negative”, the mutagenic call (Test System: AMES SALMONELLA TYPHIMURIUM, Strain/Indicator: TA1535, Metabolic Activation: NONE, Method: GAS EXPOSURE) was “inactive; negative” and the mutagenic call (Test System: AMES SALMONELLA TYPHIMURIUM, Strain/Indicator: TA1535, Metabolic Activation: RAT LIVER S-9, PHENOBARBITAL AND BETA-NAPHTHOFLAVONE (40%), Method: GAS EXPOSURE) was “inactive; negative”. The mutagenic call (Test System: AMES SALMONELLA TYPHIMURIUM, Strain/Indicator: TA1537, Metabolic Activation: NONE, Method: GAS EXPOSURE) was “inactive; negative”, the mutagenic call (Test System: AMES SALMONELLA TYPHIMURIUM, Strain/Indicator: TA1537, Metabolic Activation: RAT LIVER S-9, PHENOBARBITAL AND BETA-NAPHTHOFLAVONE (40%), Method: GAS EXPOSURE) was “inactive; negative” and the mutagenic call (Test System: E.COLI, Strain/Indicator: WP2UVRA, Metabolic Activation: NONE, Method: GAS EXPOSURE) was “inactive; negative”. The mutagenic call (Test System: E.COLI, Strain/Indicator: WP2UVRA, Metabolic Activation: RAT LIVER S-9, PHENOBARBITAL AND BETA-NAPHTHOFLAVONE (40%), Method: GAS EXPOSURE) was “inactive; negative”.
For `ClC(Cl)c1ccccc1`, the mutagenic call (Test System: AMES SALMONELLA TYPHIMURIUM, Strain/Indicator: TA98, Metabolic Activation: HAMSTER, LIVER, S-9, AROCLOR 1254 (30%), Method: PREINCUBATION) was “inactive; negative”, the mutagenic call [2] was “active; positive” and the mutagenic call (Test System: AMES SALMONELLA TYPHIMURIUM, Strain/Indicator: TA98, Metabolic Activation: RAT, LIVER, S-9, AROCLOR 1254 (30%), Method: PREINCUBATION) was “active; positive”. The mutagenic call (Test System: AMES SALMONELLA TYPHIMURIUM, Strain/Indicator: TA100, Metabolic Activation: HAMSTER, LIVER, S-9, AROCLOR 1254 (30%), Method: PREINCUBATION) was “active; positive”, the mutagenic call [5] was “active; positive” and the mutagenic call (Test System: AMES SALMONELLA TYPHIMURIUM, Strain/Indicator: TA100, Metabolic Activation: RAT, LIVER, S-9, AROCLOR 1254 (30%), Method: PREINCUBATION) was “active; positive”. For the same compound, the mutagenic call (Test System: AMES SALMONELLA TYPHIMURIUM, Strain/Indicator: TA100, Metabolic Activation: RAT, LIVER, S-9, AROCLOR 1254, Method: PREINCUBATION) was “active; positive”.
`CCCN(C)N=O` was tested, and the mutagenic call (Test System: CHINESE HAMSTER V-79, Strain/Indicator: V-79/8-AZAGUANINE, Metabolic Activation: RAT, LIVER, S-15, PHENOBARBITAL, Method: STANDARD PLATE) was “active; positive” and the mutagenic call (Test System: CHINESE HAMSTER V-79, Strain/Indicator: V-79/OUABAIN, Metabolic Activation: HAMSTER, HEPATOCYTES, Method: CELL-MEDIATED) was “active; positive”.
`CCCCOC(=O)c1ccccc1C(=O)OC1CCCCC1` was tested, and the mutagenic call [1] was “inactive; negative”, the mutagenic call [2] was “inactive; negative” and the mutagenic call [3] was “inactive; negative”. The mutagenic call [4] was “inactive; negative”, the mutagenic call [5] was “inactive; negative” and the mutagenic call [6] was “inactive; negative”. The mutagenic call [7] was “inactive; negative”, the mutagenic call [8] was “inactive; negative” and the mutagenic call [9] was “inactive; negative”. The mutagenic call [10] was “inactive; negative”, the mutagenic call [11] was “inactive; negative” and the mutagenic call [12] was “inactive; negative”.
With `C=Cc1ccc(O)c(C=C)c1` the mutagenic call [13] was “inactive; negative”, the mutagenic call (Test System: AMES SALMONELLA TYPHIMURIUM, Strain/Indicator: TA98, Metabolic Activation: S-9, Method: STANDARD PLATE) was “inactive; negative” and the mutagenic call [14] was “inactive; negative”. The mutagenic call (Test System: AMES SALMONELLA TYPHIMURIUM, Strain/Indicator: TA100, Metabolic Activation: S-9, Method: STANDARD PLATE) was “inactive; negative”.
In the case of `C=CC(C)(O)CCC=C(C)C` (stereo not given), the mutagenic call (Test System: AMES SALMONELLA TYPHIMURIUM, Strain/Indicator: TA97, Metabolic Activation: NONE, Method: PREINCUBATION) is reported as “inactive; negative”, the mutagenic call (Test System: AMES SALMONELLA TYPHIMURIUM, Strain/Indicator: TA97, Metabolic Activation: RAT, LIVER, S-9, AROCLOR 1254, Method: PREINCUBATION) is reported as “inactive; negative” and the mutagenic call (Test System: AMES SALMONELLA TYPHIMURIUM, Strain/Indicator: TA102, Metabolic Activation: NONE, Method: PREINCUBATION) is reported as “inactive; negative”. For the same compound, the mutagenic call (Test System: AMES SALMONELLA TYPHIMURIUM, Strain/Indicator: TA102, Metabolic Activation: RAT, LIVER, S-9, AROCLOR 1254, Method: PREINCUBATION) was “inactive; negative”, the mutagenic call (Test System: E. coli, Strain/Indicator: WP2 IC185 trpE65, Metabolic Activation: None, Method: Plate incorporation (Test material solvent: ethanol)) was “inactive; negative” and the mutagenic call (Test System: E. coli, Strain/Indicator: WP2 IC202 trpE65 oxyR/pKM101, Metabolic Activation: None, Method: Plate incorporation (Test material solvent: ethanol)) was “inactive; negative”.
